The target in the assay is NamPT (Homo sapiens (Human), UniProt P43490). Put plainly: Measurement of NamPT inhibitory ability IC50 (NamPT colorimetric assay kit, Abcam ab221819). The following applies: NamPT recombinant protein, WST-1 absorbance at 450 nm; class key in μM. In kind it is biochemical. The method, then:
To test the effect of the compound prepared in each Example on the substrate decomposition rate (Vmax/min) mediated by NamPT enzyme, IC50 was calculated. In this experiment, the NamPT colorimetric assay kit (ab221819) produced by Abcam was used, and Graph prism software was used for IC50 calculation. PRPP, ATP, NMNAT1, NamPT recombinant proteins, and various concentrations of the compound of each Example (half-log step dilution from 100 μM) were added to nicotinamide to synthesize nicotinamide adenine dinucleotide (NAD) from the nicotinamide, and a total of 60 μL of the reaction solution was reacted at room temperature for 1 hour. WST-1 formazan converted by NAD generated by adding WST-1 was measured. The result of the reaction was obtained by the following formula by measuring absorbance using EnVision2105 (PerkinElmer) at 450 nm for 60 minutes at 2-minute intervals.
In Mathematical Formula 1, T1 and T2 are arbitrary times, and A1 and A2 represent the absorbance measured at T1 and T2 at 450 nm, respectively.
The results of measuring the NamPT inhibition activity of the compound of each Example obtained through the above experiment are shown in Table 1 in the unit of IC50 (nM), and the result values are expressed as follows.
Sequence of NamPT (P43490 whole entry): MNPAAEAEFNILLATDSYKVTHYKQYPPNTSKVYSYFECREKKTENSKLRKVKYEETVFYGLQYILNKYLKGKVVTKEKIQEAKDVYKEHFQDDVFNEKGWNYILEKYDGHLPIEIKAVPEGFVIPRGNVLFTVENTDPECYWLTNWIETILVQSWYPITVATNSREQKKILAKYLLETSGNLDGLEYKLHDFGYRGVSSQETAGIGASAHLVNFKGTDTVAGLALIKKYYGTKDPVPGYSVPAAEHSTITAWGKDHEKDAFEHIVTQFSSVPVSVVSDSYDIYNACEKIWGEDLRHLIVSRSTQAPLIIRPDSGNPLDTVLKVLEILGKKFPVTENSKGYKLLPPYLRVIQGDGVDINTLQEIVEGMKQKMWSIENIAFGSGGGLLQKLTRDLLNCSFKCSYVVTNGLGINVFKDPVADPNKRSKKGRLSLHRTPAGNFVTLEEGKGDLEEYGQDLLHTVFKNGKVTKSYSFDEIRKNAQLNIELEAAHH
In the case of `Cc1cccc2nc(-c3ccc(CNC(=O)c4cnc5nccn5c4)cc3)oc12` [Example 21, N-[[4-(7-methyl-1,3-benzoxazol-2-yl)phenyl]methyl]imidazo[1,2-a]pyrimidin-6-carboxamide], the IC50 lay within 0.11 to 1 µM.
The result for `CCOC(=O)c1ccc2oc(-c3ccc(CNC(=O)c4cnc5nccn5c4)cc3)nc2c1` [Example 29, ethyl 2-[4-[(imidazo[1,2-a]pyrimidin-6-carbonylamino)methyl]phenyl]-1,3-benzoxazol-5-carboxylate] reads less than 0.05 µM.
The figure for `O=C(NCc1ccc(-c2nc3cc(F)ccc3o2)cc1)c1cnc2nccn2c1` [Example 18, N-[[4-(5-fluoro-1,3-benzoxazol-2-yl)phenyl]methyl]imidazo[1,2-a]pyrimidin-6-carboxamide] is 0.11 to 1 µM; for `O=C(NCc1ccc(-c2nc3ccc(Cl)cc3o2)cn1)c1cnc2nccn2c1` [Example 63, N-[[5-(6-chloro-1,3-benzoxazol-2-yl)-2-pyridyl]methyl]imidazo[1,2-a]pyrimidin-6-carboxamide] it is less than 0.05 µM.
The figure for `Cc1ccc2nc(-c3ccc(CNC(=O)c4cnc5nccn5c4)cc3)oc2n1` [Example 24, N-[[4-(5-methyloxazolo[5,4-b]pyridin-2-yl)phenyl]methyl]imidazo[1,2-a]pyrimidin-6-carboxamide] is less than 0.05 µM.
Take `Cc1ccc2nc(-c3ccc(C(C)NC(=O)c4cnc5nccn5c4)cc3)oc2c1` (stereo not shown) [Example 64, N-[1-[4-(6-methyl-1,3-benzooxazol-2-yl)phenyl]ethyl]imidazo[1,2-a]pyrimidin-6-carboxamide]: the IC50 is greater than 1 µM.
The result for `COc1ccc2nc(-c3ccc(CNC(=O)c4cnc5nccn5c4)cc3)sc2c1` [Example 52, N-[[4-(6-methoxy-1,3-benzothiazol-2-yl)phenyl]methyl]imidazo[1,2-a]pyrimidin-6-carboxamide] reads less than 0.05 µM; that for `O=C(NCc1ccc(-c2nc3cc(C(F)(F)F)c(Cl)cc3o2)cc1)c1cnc2nccn2c1` [Example 41, N-[[4-[6-chloro-5-(trifluoromethyl)-1,3-benzoxazol-2-yl]phenyl]methyl]imidazo[1,2-a]pyrimidin-6-carboxamide], less than 0.05 µM.
The figure for `O=C(NCc1ccc(-c2nc3cc(Cl)ccc3o2)cc1)c1cnc2nccn2c1` [Example 16, N-[[4-(5-chloro-1,3-benzoxazol-2-yl)phenyl]methyl]imidazo[1,2-a]pyrimidin-6-carboxamide] is less than 0.05 µM; for `O=C(NCc1ccc(-c2nc3cc(-c4ccccc4)ccc3o2)cc1)c1cnc2nccn2c1` [Example 56, N-[[4-(5-phenyl-1,3-benzoxazol-2-yl)phenyl]methyl]imidazo[1,2-a]pyrimidin-6-carboxamide] it is 0.11 to 1 µM; for `O=C(NCc1ccc(-c2nc3ccc(Oc4cccnc4)cc3o2)cc1)c1cnc2nccn2c1` [Example 58, N-[[4-[6-(3-pyridyloxy)-1,3-benzoxazol-2-yl]phenyl]methyl]imidazo[1,2-a]pyrimidin-6-carboxamide] it is less than 0.05 µM.
The result for `CCS(=O)(=O)c1ccc2nc(-c3ccc(CNC(=O)c4cnc5nccn5c4)cc3)oc2c1` [Example 14, N-[[4-(6-ethylsulfonyl-1,3-benzoxazol-2-yl)phenyl]methyl]imidazo[1,2-a]pyrimidin-6-carboxamide] reads less than 0.05 µM.
For `O=C(NCc1ccc(-c2nc3cc(Cl)ccc3s2)cc1)c1cnc2nccn2c1` [Example 49, N-[[4-(5-chloro-1,3-benzothiazol-2-yl)phenyl]methyl]imidazo[1,2-a]pyrimidin-6-carboxamide], the IC50 is less than 0.05 µM.
The figure for `O=C(NCc1ccc(-c2nc3ccc(Cl)nc3o2)cc1)c1cnc2nccn2c1` [Example 60, N-[[4-(5-chlorooxazolo[5,4-b]pyridin-2-yl)phenyl]methyl]imidazo[1,2-a]pyrimidin-6-carboxamide] is less than 0.05 µM.
The result for `Cc1ccc2nc(-c3ccc(CNC(=O)c4ccc5nccn5c4)cc3)oc2c1` [Example 61, N-[[4-(6-methyl-1,3-benzoxazol-2-yl)phenyl]methyl]imidazo[1,2-a]pyridin-6-carboxamide] reads 0.11 to 1 µM; that for `O=C(NCc1ccc(-c2nc3ccc(-c4ccccc4)cc3o2)cc1)c1cnc2nccn2c1` [Example 59, N-[[4-(6-phenyl-1,3-benzoxazol-2-yl)phenyl]methyl]imidazo[1,2-a]pyrimidin-6-carboxamide], greater than 1 µM; that for `O=C(NCc1ccc(-c2nc3cc(Cl)c(C(F)(F)F)cc3o2)cc1)c1cnc2nccn2c1` [Example 42, N-[[4-[5-chloro-6-(trifluoromethyl)-1,3-benzoxazol-2-yl]phenyl]methyl]imidazo[1,2-a]pyrimidin-6-carboxamide], less than 0.05 µM.
The figure for `Cc1ccc2nc(-c3ccc(CNC(=O)c4cnc5nccn5c4)nc3)oc2c1` [Example 28, N-[[5-(6-methyl-1,3-benzoxazol-2-yl)-2-pyridyl]methyl]imidazo[1,2-a]pyrimidin-6-carboxamide] is 0.11 to 1 µM.
Consider `CCc1ccc2nc(-c3ccc(CNC(=O)c4cnc5nccn5c4)cc3)oc2c1` [Example 45, N-[[4-(6-ethyl-1,3-benzoxazol-2-yl)phenyl]methyl]imidazo[1,2-a]pyrimidin-6-carboxamide], for which the IC50 was less than 0.05 µM.
The result for `O=C(NCc1ccc(-c2nc3cc(O)ccc3o2)cc1)c1cnc2nccn2c1` [Example 23, N-[[4-(5-hydroxy-1,3-benzoxazol-2-yl)phenyl]methyl]imidazo[1,2-a]pyrimidin-6-carboxamide] reads less than 0.05 µM; that for `O=C(NCc1ccc(-c2nc3cnccc3o2)cc1)c1cnc2nccn2c1` [Example 36, N-[(4-oxazolo[4,5-c]pyridin-2-ylphenyl)methyl]imidazo[1,2-a]pyrimidin-6-carboxamide], 0.11 to 1 µM; that for `O=C(NCc1ccc(-c2nc3c(F)cc(F)cc3o2)cc1)c1cnc2nccn2c1` [Example 40, N-[[4-(4,6-difluoro-1,3-benzoxazol-2-yl)phenyl]methyl]imidazo[1,2-a]pyrimidin-6-carboxamide], less than 0.05 µM.
The figure for `Nc1ccc2nc(-c3ccc(CNC(=O)c4cnc5nccn5c4)cc3)oc2c1` [Example 26, N-[[4-(6-amino-1,3-benzoxazol-2-yl)phenyl]methyl]imidazo[1,2-a]pyrimidin-6-carboxamide] is 0.051 to 0.1 µM; for `Cc1cccc2oc(-c3ccc(CNC(=O)c4cnc5nccn5c4)cc3)nc12` [Example 20, N-[[4-(4-methyl-1,3-benzoxazol-2-yl)phenyl]methyl]imidazo[1,2-a]pyrimidin-6-carboxamide] it is 0.11 to 1 µM.
The result for `Cc1ccc2nc(-c3ccc(CNC(=O)c4cnc5nccn5c4)c(F)c3)oc2c1` [Example 35, N-[[2-fluoro-4-(6-methyl-1,3-benzoxazol-2-yl)phenyl]methyl]imidazo[1,2-a]pyrimidin-6-carboxamide] reads less than 0.05 µM; that for `CCc1ccc2oc(-c3ccc(CNC(=O)c4cnc5nccn5c4)cc3)nc2c1` [Example 44, N-[[4-(5-ethyl-1,3-benzoxazol-2-yl)phenyl]methyl]imidazo[1,2-a]pyrimidin-6-carboxamide], less than 0.05 µM; that for `O=C(O)c1ccc2nc(-c3ccc(CNC(=O)c4cnc5nccn5c4)cc3)oc2c1` [Example 5, 2-[4-[(imidazo[1,2-a]pyrimidin-6-carbonylamino)methyl]phenyl]-1,3-benzoxazol-6-carboxylic acid], 0.11 to 1 µM.
Turning to `Cc1ccc2nc(-c3ccc(CNC(=O)c4cnc5nccn5c4)cc3)sc2c1` [Example 8, N-[[4-(6-methyl-1,3-benzothiazol-2-yl)phenyl]methyl]imidazo[1,2-a]pyrimidin-6-carboxamide], the IC50 is less than 0.05 µM.
For `O=C(NCc1ccc(-c2nc3ccc(Cl)cc3s2)cc1)c1cnc2nccn2c1` [Example 50, N-[[4-(6-chloro-1,3-benzothiazol-2-yl)phenyl]methyl]imidazo[1,2-a]pyrimidin-6-carboxamide], the IC50 lay in the range of 0.051 to 0.1 µM.
Regarding `CCS(=O)(=O)c1ccc2oc(-c3ccc(CNC(=O)c4cnc5nccn5c4)cc3)nc2c1` [Example 37, N-[[4-(5-ethylsulfonyl-1,3-benzoxazol-2-yl)phenyl]methyl]imidazo[1,2-a]pyrimidin-6-carboxamide], the IC50 lay within 0.11 to 1 µM.
Regarding `COc1ccc2sc(-c3ccc(CNC(=O)c4cnc5nccn5c4)cc3)nc2c1` [Example 51, N-[[4-(5-methoxy-1,3-benzothiazol-2-yl)phenyl]methyl]imidazo[1,2-a]pyrimidin-6-carboxamide], the IC50 was less than 0.05 µM.
The result for `O=C(NCc1ccc(-c2nc3cc(F)c(F)cc3o2)cc1)c1cnc2nccn2c1` [Example 39, N-[[4-(5,6-difluoro-1,3-benzoxazol-2-yl)phenyl]methyl]imidazo[1,2-a]pyrimidin-6-carboxamide] reads less than 0.05 µM; that for `O=C(NCc1ccc(-c2nc3cc(CO)ccc3o2)cc1)c1cnc2nccn2c1` [Example 30, N-[[4-[5-(hydroxymethyl)-1,3-benzoxazol-2-yl]phenyl]methyl]imidazo[1,2-a]pyrimidin-6-carboxamide], less than 0.05 µM.
The figure for `CCCOc1ccc2oc(-c3ccc(CNC(=O)c4cnc5nccn5c4)cc3)nc2c1` [Example 54, N-[[4-(5-propoxy-1,3-benzoxazol-2-yl)phenyl]methyl]imidazo[1,2-a]pyrimidin-6-carboxamide] is 0.051 to 0.1 µM.

Source of the values: patent publication US20260022122A1 (Checkmate Therapeutics Inc., priority 2022, published 2026).
